In paper PMC12186843, “Targeting GABAergic Hypofunction Associated with Schizophrenia: Identification of α1β2γ2GABA‑A Receptor Ligands with Neuroprotective and Antipsychotic Properties” (ACS Chemical Neuroscience, 2025):

Experiments:
MDR1-MDCKII cell line = test: A–B and B–A permeability assay in MDR1-MDCKII cell line
Experimental: The A–B and B–A permeability assay using the MDR1-MDCKII cell line was conducted at Eurofins Discovery according to a well-established protocol.

[1] = rats, i.p., 3 mg/kg, ref Mordyl, B. et al. J. Med. Chem. 2024, 67 (24), 21859–21889, cited from earlier work
SH-SY5Y cells = test: Intracellular calcium concentration after 6-OHDA (Fluo-4); format: cell-based, human; details: 50 μM pretreatment 1 h, then 6-OHDA 250 μM 1 h
Experimental: 7 (A). Effect of 6-Hydroxydopamine (6-OHDA) on intracellular calcium concentration [Ca^2+] determined by Fluo-4 AM. After pretreatment with tested compounds (50 μM) or vehicle (0.5% DMSO, v/v) for 1 h, the cells were incubated with 6-Hydroxydopamine (6-OHDA, 250 μM) for 1 h. 6-OHDA control: cells treated with 250 μM of 6-OHDA. […]. DMSO control: cells treated with 0.5% DMSO only. Data are presented as the mean ± SD from 2–3 independent experiments. Experiments were carried on with ImageXpress Micro XLS (Molecular Devices). (B) The level of ROS generation was determined by Cell ROX dye. After pretreatment with tested compounds (50 μM) or vehicle (0.5% DMSO, v/v) for 1 h, the cells were incubated with hydrogen peroxide (H2O2, 300 μM) for 1 h. H2O2 control: cells treated with H2O2 (300 μM). DMSO control: cells treated with 0.5% DMSO only. Data are presented as the mean ± SD from 2–3 independent experiments. Experiments were carried on with the ImageXpress Micro XLS (Molecular Devices).
The SH-SY5Y human neuroblastoma cell line was maintained according to established protocols. The cells, obtained from the American Type Culture Collection (ATCC), were cultured in Dulbecco’s Modified Eagle’s Medium (DMEM, high glucose; Thermo Fisher), supplemented with 10% fetal bovine serum (Thermo Fisher), 100 IU/ml penicillin (Merck), and 100 μg/mL streptomycin (Merck). They were grown in 75 cm^2 flasks (Nunc) at 37 °C in a humidified atmosphere containing 5% CO2. For compound evaluation, SH-SY5Y cells were plated in 96-well plates (Falcon) at a density of 2 × 10^4 cells per well. The cells were allowed to adhere and grow for 24 h in an incubator set to 37 °C and 5% CO2 before starting the experiments. Stock solutions of both test and reference compounds were prepared at a concentration of 10^–2 M. A minimum of 1 mg of each compound was dissolved in dimethyl sulfoxide (DMSO). Serial dilutions were made in DMSO, then further diluted in PBS, mixed, and added to the cell culture medium.
The intracellular Ca^2+ levels were assessed using a homogeneous cell-based assay with the Fluo-4 Direct Calcium Assay Kit (Thermo Fisher). Following incubation with the tested compounds, the supernatant was discarded, and the cells were incubated with 1 μM Fluo-4/AM in FluoroBrite DMEM (Thermo Fisher) for 1 h at 37 °C. The results were expressed as a percentage relative to the control (DMSO). Fluorescence intensity was recorded using the ImageXpress Micro XLS system (Molecular Devices).

Cc1ccc2nc(-c3ccc(F)cc3)c(CC(=O)N3CCCC3)n2c1.O=C(O)C(O)C(O)C(=O)O [Compound 17, 2-(4-Fluorophenyl)-6-methyl-3-(2-oxo-2-(pyrrolidin-1-yl)-ethyl)imidazo[1,2-a]pyridin-1-ium 3-carboxy-2,3-dihydroxy-propanoate]
Substrate for P-glycoprotein (P-gp) efflux (MDR1-MDCKII cell line; MDCK-MDR1 permeability assay): not to be a substrate
Permeability A–B (MDR1-MDCKII cell line; pH 7.4/7.4, 6 and 17 at 10 μM): 55.6 10^–6 cm/s
Permeability B–A (MDR1-MDCKII cell line; pH 7.4/7.4, 6 and 17 at 10 μM): 29.7 10^–6 cm/s
t0.5 Plasma ([1]; n=6, plasma, terminal half life): 249 min
AUC0→t Brain ([1]; n=6, brain): 8229 ng·min/g
Cmax Brain ([1]; n=6, brain): 219.5 ng/g
MRT Brain ([1]; n=6, brain): 102.5 min
tmax Brain ([1]; n=6, brain): 5 min
t0.5 Brain ([1]; n=6, brain, terminal half life): 653.2 min
AUC0→t Plasma ([1]; n=6, plasma): 128271 ng·min/mL
MRT Plasma ([1]; n=6, plasma): 50.9 min
tmax Plasma ([1]; n=6, plasma): 5 min
Reduction of intracellular calcium levels (SH-SY5Y cells): 48%
